These results are taken from PMC4624854 (Frontiers in Molecular Neuroscience, 2015).

For one test, the system named is α3 GlyR subunits. More on the design: method as in Xiong et al., 2011. Conditions: ref Xiong et al., 2011; cited from earlier work.
For the next test, the system named is α1 GlyR subunits. More on the design: method as in Xiong et al., 2011. Conditions: ref Xiong et al., 2011; cited from earlier work.
In test [1] the test system is GlyR subunits α1, α2, α3; heteromeric vs homomeric GlyRs. Further details: method as in Kondratskaya et al., 2005. Conditions: ref Kondratskaya et al., 2005; cited from earlier work.
In test [2] the test system is α1 GlyR. More on the design: method as in Raafat et al., 2010. Conditions: non-competitive inhibition; ref Raafat et al., 2010; cited from earlier work.
The target in a further test is T1, α2 GlyRs (Homo sapiens, UniProt P23416).
T1 construct: expressed in transfected cells; host or cells: CHO-K1
T1 sequence (P23416 28-452): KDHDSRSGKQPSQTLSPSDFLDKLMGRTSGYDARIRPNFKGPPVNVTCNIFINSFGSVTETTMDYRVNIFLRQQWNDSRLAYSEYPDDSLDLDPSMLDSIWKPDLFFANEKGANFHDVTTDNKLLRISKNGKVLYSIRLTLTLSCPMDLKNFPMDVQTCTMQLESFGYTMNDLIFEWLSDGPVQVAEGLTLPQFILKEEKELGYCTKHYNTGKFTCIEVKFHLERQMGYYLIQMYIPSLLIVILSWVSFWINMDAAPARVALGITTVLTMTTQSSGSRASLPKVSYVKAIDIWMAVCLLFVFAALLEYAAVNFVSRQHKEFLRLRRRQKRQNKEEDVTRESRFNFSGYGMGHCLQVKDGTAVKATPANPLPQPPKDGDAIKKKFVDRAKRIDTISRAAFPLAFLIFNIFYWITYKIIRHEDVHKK
Description: whole-cell patch-clamp of Igly, homomeric α2 GlyRs in CHO cells. It counts as cell-based. On the technique in general: In patch-clamp work, channel activity is measured electrically.

The target in test [3] is T2, α1 GlyR (Homo sapiens, UniProt P23415).
T2 sequence (P23415 29-457): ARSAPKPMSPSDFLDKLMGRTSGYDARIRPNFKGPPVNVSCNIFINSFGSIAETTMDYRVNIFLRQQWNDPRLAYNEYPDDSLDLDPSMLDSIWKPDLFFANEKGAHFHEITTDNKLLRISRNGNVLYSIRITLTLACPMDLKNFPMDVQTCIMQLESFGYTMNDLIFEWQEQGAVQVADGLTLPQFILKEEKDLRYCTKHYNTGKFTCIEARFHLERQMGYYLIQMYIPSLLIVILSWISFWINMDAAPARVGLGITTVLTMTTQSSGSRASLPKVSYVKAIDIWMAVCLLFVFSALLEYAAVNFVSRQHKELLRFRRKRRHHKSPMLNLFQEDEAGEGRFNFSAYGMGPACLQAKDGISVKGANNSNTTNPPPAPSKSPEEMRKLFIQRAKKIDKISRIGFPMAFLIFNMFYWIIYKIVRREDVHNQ
Description: whole-cell patch-clamp of Igly, α1 GlyR expressed in mouse neuroblastoma (N2a) cells. More on the design: expressed in transfected cells; host or cells: mouse neuroblastoma N2a. Conditions: 3 μM ginkgolic acid, first two applications (Figure 2B). It counts as cell-based.
Description: (§1) For electrophysiological analysis cells were transfected with cDNAs of different receptor-operated channels. One day before the transfection, cells were plated on the coverslips (12–14 mm in diameter), which were placed inside 35-mm cell culture dishes with 2 ml of medium. CHO-K1 cells were transfected with the following cDNAs encoding GlyR subunits: human α1 (1 μg/1 μl), α2 (2 μg/1 μl), α3-long (2 μg/1 μl), and β (in combination with α1 or α2 subunits with the ratio of cDNAs concentrations 1α:5β); or with a mixture of cDNAs encoding GABAA receptors: α1-GFP (1 μg/μl), β2 (1 μg/μl), γ2 (1 μg/μl) using the Lipofectamine 2000 transfection protocol (Life Technology, USA). […]
(§2) Whole-cell recordings were performed at room temperature (20–25 °C) using an EPC-9 amplifier (HEKA Elektronik, Germany). […] In the experiments performed with CsCl intracellular solution, ionic currents were recorded at holding potential (Vh) –30 mV. […] Two parallel rectangular tubes (100 μm × 100 μm) were positioned 40–50 μm above the recorded cell. The movement of the tubes was controlled by a computer-driven fast exchange system (SF 77A Perfusion Fast-Step, Warner, USA) allowing a 10–90% solution exchange in 3–5 ms, as measured by open electrode controls (1/10 external solution/water). […]

Another test addresses T3, heteromeric α1/β GlyRs (Homo sapiens, UniProt P23415).
T3 construct: expressed in transfected cells; host or cells: CHO-K1
Description: whole-cell patch-clamp of Igly, heteromeric α1/β GlyRs in CHO cells. The class given is cell-based. Conditions: for increase of currents induced by subsaturating glycine: 25 μM ginkgolic acid, n = 5.

In test [4] the target is T2, α1 GlyR. Description: whole-cell patch-clamp of glycine-induced currents (Igly), homomeric α1 GlyRs expressed in CHO cells. The settings on record: for average Igly (mean current amplitude) after ginkgolic acid: 2 min, control 291 ± 65.
Description: The experiments were carried out on cultured Chinese hamster ovary (CHO-K1) cells obtained from the American Type Tissue Culture Collection (ATCC, Molsheim, France) and on mouse neuroblastoma cells (N2a) cells that were maintained in culture conditions as previously described ([Waseem et al., 2010]; [Mukhtarov et al., 2013]).
(§3) For electrophysiological analysis cells were transfected with cDNAs of different receptor-operated channels. One day before the transfection, cells were plated on the coverslips (12–14 mm in diameter), which were placed inside 35-mm cell culture dishes with 2 ml of medium. CHO-K1 cells were transfected with the following cDNAs encoding GlyR subunits: human α1 (1 μg/1 μl), α2 (2 μg/1 μl), α3-long (2 μg/1 μl), and β (in combination with α1 or α2 subunits with the ratio of cDNAs concentrations 1α:5β); or with a mixture of cDNAs encoding GABAA receptors: α1-GFP (1 μg/μl), β2 (1 μg/μl), γ2 (1 μg/μl) using the Lipofectamine 2000 transfection protocol (Life Technology, USA). To facilitate identification of expressing cells, in the case of GlyR, green fluorescent protein (GFP, 0.5 μg/μl) was added to the transfection medium. Visualization of GABAAR expression was achieved by using the α1-GFP construct ([Bueno et al., 1998]). Three hours after the initial exposure of the cells to the cDNAs, a fresh solution replaced the old one. […] Electrophysiological recordings were performed on fluorescent cells 24–72 h after transfection.
(§4) Whole-cell recordings were performed at room temperature (20–25 °C) using an EPC-9 amplifier (HEKA Elektronik, Germany). Cells were continuously superfused with external solution containing (mM): NaCl 140, CaCl2 2, KCl 2.8, MgCl2 4, HEPES 20, glucose 10; pH 7.4; 320–330 mOsm. Two intracellular solutions were used for filling recording patch pipettes. First, mainly used, ‘CsCl solution’ contained (mM): CsCl 140, CaCl2 6, MgCl2 2, MgATP 2, NaGTP 0.4, HEPES/CsOH 10, BAPTA/KOH 20; pH 7.3; 290 mOsm. In the experiments performed with CsCl intracellular solution, ionic currents were recorded at holding potential (Vh) –30 mV. In some experiments, ‘Kgluconate solution’ was used, in which CsCl 140 mM was replaced by KCl 20 mM + Kgluconate 120 mM. Recordings with this solutions were performed at Vh = 0 mV. Pipettes were pulled from borosilicate glass capillaries (Harvard Apparatus Ltd, USA) and had resistances of 5–10 MOhms. For rapid replacement of solutions, the fast application system was used in this study. Two parallel rectangular tubes (100 μm × 100 μm) were positioned 40–50 μm above the recorded cell. The movement of the tubes was controlled by a computer-driven fast exchange system (SF 77A Perfusion Fast-Step, Warner, USA) allowing a 10–90% solution exchange in 3–5 ms, as measured by open electrode controls (1/10 external solution/water).
In all experiments, the duration of the pulses of agonist was 2 s. […] Cells with low input resistance (<150 MOhms) and a rapid run-down (>30% with repetitive application) were excluded from analysis.
(§5) All electrophysiological results were analyzed using PatchMaster (HEKA Electronik, Germany) software. Dose–response curves were constructed by fitting values obtained at different concentrations, after normalization.
where I is the normalized current amplitude induced by the agonist at concentration [A], nH is the Hill coefficient and EC50 is the concentration at which a half-maximum response was induced.
Paired and unpaired Student’s t-tests were used for statistical analysis. The data are expressed as the means ± SEM.
The target of test [5] is T4, α3 GlyR (α3L splice variant) (Homo sapiens, UniProt O75311).
T4 construct: expressed in transfected cells; host or cells: CHO-K1
T4 sequence (O75311 34-464): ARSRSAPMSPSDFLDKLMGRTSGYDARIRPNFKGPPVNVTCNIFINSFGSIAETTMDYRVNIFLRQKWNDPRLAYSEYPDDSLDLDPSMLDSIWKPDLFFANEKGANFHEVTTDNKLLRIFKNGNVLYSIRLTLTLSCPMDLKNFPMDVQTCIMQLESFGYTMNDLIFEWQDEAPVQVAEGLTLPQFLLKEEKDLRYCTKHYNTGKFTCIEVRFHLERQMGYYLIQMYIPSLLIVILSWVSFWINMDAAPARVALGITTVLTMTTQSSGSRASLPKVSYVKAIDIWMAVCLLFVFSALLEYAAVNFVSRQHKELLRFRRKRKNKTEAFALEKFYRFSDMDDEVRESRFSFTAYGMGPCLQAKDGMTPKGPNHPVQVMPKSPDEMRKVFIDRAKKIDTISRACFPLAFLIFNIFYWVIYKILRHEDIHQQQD
The test is described as follows: whole-cell patch-clamp of Igly, α3-long (α3L) GlyRs in CHO cells. It counts as cell-based.
Description: as §3, §4
In all experiments, the duration of the pulses of agonist was 2 s. The duration of ginkgolic acid application varied from 20 s to 6 min. Cells with low input resistance (<150 MOhms) and a rapid run-down (>30% with repetitive application) were excluded from analysis.
as §5

Test [6] relates to protein phosphatase 2C (PP2C). Further details: method as in Ahlemeyer et al., 2001. Conditions: ref Ahlemeyer et al., 2001; cited from earlier work.
The target in a further test is GABAAR α1/β2/γ2 (Homo sapiens, UniProt P14867+P47870). Description: whole-cell patch-clamp of GABA-evoked currents, α1/β2/γ2 GABAARs in CHO cells. It counts as cell-based.
Chain of GABAAR α1/β2/γ2 (P14867 28-456): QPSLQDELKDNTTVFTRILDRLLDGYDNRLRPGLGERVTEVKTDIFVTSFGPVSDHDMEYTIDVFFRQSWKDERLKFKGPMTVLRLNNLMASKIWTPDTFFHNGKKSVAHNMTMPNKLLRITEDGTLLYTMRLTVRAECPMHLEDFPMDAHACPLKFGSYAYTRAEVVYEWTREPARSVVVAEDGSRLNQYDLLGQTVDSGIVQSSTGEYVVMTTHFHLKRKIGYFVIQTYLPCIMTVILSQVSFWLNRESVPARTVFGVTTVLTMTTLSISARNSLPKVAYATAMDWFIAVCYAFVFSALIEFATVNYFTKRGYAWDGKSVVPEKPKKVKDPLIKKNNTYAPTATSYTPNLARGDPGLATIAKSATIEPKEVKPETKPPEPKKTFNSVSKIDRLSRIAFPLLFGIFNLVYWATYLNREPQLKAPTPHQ
Chain of GABAAR α1/β2/γ2 (P47870 26-512): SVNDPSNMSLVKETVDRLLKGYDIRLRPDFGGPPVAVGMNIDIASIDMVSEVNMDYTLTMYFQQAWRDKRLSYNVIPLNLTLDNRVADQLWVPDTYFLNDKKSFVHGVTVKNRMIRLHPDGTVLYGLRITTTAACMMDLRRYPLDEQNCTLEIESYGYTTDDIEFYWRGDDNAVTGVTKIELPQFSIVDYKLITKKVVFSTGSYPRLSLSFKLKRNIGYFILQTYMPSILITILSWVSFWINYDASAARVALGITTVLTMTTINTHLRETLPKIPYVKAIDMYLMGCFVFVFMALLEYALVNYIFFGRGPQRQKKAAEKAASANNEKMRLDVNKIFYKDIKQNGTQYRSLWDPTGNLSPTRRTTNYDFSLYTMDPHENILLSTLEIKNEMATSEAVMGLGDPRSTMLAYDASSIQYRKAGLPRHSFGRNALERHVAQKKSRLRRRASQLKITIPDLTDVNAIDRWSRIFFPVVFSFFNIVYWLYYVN
Chain of GABAAR α1/β2/γ2 (P18507 40-475 partner): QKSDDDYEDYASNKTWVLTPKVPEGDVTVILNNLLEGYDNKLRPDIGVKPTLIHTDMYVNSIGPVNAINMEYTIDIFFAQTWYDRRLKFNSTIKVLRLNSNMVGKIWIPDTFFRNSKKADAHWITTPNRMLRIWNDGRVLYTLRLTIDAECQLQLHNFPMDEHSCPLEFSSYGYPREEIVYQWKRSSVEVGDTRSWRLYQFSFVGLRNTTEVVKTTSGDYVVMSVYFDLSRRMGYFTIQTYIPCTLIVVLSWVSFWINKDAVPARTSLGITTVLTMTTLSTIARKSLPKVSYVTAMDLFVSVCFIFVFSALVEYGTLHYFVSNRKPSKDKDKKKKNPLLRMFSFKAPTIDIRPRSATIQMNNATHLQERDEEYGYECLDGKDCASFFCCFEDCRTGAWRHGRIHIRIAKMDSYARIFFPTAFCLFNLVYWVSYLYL

T3 sequence (P48167 23-497 partner, one chain of several): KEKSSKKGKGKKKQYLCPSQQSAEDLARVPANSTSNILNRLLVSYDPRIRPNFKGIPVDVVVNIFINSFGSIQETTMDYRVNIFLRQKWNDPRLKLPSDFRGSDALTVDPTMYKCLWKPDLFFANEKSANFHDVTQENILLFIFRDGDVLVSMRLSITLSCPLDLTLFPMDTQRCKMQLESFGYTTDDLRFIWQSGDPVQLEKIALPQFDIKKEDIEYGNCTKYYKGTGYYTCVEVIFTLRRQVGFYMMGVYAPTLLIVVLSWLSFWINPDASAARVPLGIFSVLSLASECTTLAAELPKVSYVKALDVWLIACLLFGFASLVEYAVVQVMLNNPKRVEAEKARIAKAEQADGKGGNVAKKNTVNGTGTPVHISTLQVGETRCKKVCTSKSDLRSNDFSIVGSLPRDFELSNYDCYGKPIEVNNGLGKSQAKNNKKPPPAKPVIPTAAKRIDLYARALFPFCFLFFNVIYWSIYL
Description for GABAAR α1/β2/γ2: as §3
Whole-cell recordings were performed at room temperature (20–25 °C) using an EPC-9 amplifier (HEKA Elektronik, Germany). Cells were continuously superfused with external solution containing (mM): NaCl 140, CaCl2 2, KCl 2.8, MgCl2 4, HEPES 20, glucose 10; pH 7.4; 320–330 mOsm. Two intracellular solutions were used for filling recording patch pipettes. […] In the experiments performed with CsCl intracellular solution, ionic currents were recorded at holding potential (Vh) –30 mV. […] Two parallel rectangular tubes (100 μm × 100 μm) were positioned 40–50 μm above the recorded cell. The movement of the tubes was controlled by a computer-driven fast exchange system (SF 77A Perfusion Fast-Step, Warner, USA) allowing a 10–90% solution exchange in 3–5 ms, as measured by open electrode controls (1/10 external solution/water). […]
(§6) All electrophysiological results were analyzed using PatchMaster (HEKA Electronik, Germany) software. […]
Description for heteromeric α1/β GlyRs: as §3
Whole-cell recordings were performed at room temperature (20–25 °C) using an EPC-9 amplifier (HEKA Elektronik, Germany). Cells were continuously superfused with external solution containing (mM): NaCl 140, CaCl2 2, KCl 2.8, MgCl2 4, HEPES 20, glucose 10; pH 7.4; 320–330 mOsm. Two intracellular solutions were used for filling recording patch pipettes. First, mainly used, ‘CsCl solution’ contained (mM): CsCl 140, CaCl2 6, MgCl2 2, MgATP 2, NaGTP 0.4, HEPES/CsOH 10, BAPTA/KOH 20; pH 7.3; 290 mOsm. In the experiments performed with CsCl intracellular solution, ionic currents were recorded at holding potential (Vh) –30 mV. […] Two parallel rectangular tubes (100 μm × 100 μm) were positioned 40–50 μm above the recorded cell. The movement of the tubes was controlled by a computer-driven fast exchange system (SF 77A Perfusion Fast-Step, Warner, USA) allowing a 10–90% solution exchange in 3–5 ms, as measured by open electrode controls (1/10 external solution/water). […]
Description for α2 GlyRs: as §1, §2, §6

With `CCCCCc1cc(O)c2c(c1)OC(C)(C)C1CCC(C)=CC21` (centres unmarked) [THC, Δ^9-tetrahydrocannabiol], the “concentration from which potentiation begins” value in the test with α3 GlyR subunits and with α1 GlyR subunits was ≥ 30 nM in each case.
As to ginkgolide B, in [1], the “preference for α1 vs. α2 GlyR subunits” value is “about 5 fold” and the “preference for α1 vs. α3 GlyR subunits” value is reported as ~3 fold.
In the case of `O=c1c(O)c(-c2ccc(O)c(O)c2)oc2cc(O)cc(O)c12` [Quercetin], in the test with α1 GlyR [2], the IC50 – broadly, the point on the concentration scale where inhibition reaches its midpoint – is ~45 µM.
`CCCCCC/C=C\CCCCCCCc1cccc(O)c1C(=O)O` [ginkgolic acid]: the “effect on Igly at 1 μM” value on α2 GlyRs (1 μM ginkgolic acid) is reported as “not detectable”. The “effect on the amplitude of Igly at low concentrations” value at α2 GlyRs (ginkgolic acid <10 μM) is “no effect”. Moreover, on α1 GlyR [3], the “increase in Igly in N2a cells” value is “more than twofold increase”. Also, the “increase of currents induced by subsaturating glycine” value on heteromeric α1/β GlyRs is 82 ± 39%; on heteromeric α1/β GlyRs (listed as GA) it was 82%±39. Besides, the “effect on currents induced by saturated glycine” value on heteromeric α1/β GlyRs (glycine 0.3–1 mM) is “did not increase”. Besides, on α1 GlyR [4], the “threshold of potentiation of α1 GlyR” value is listed as ~30 nM. Besides, the “time of treatment after which potentiation was observed (onset)” value on α1 GlyR [4] (30 nM ginkgolic acid, glycine 30 μM) is 2 to 3 min. Besides, the “augmentation of Igly after 20–30 s of pre-treatment” value at α1 GlyR [4] (100 nM ginkgolic acid, 20–30 s, n = 8) is reported as 26 ± 8%. Moreover, the “potentiation of Igly following the first 40 s” value at α1 GlyR [4] (100 nM ginkgolic acid, 40 s, glycine 30 μM, one cell (Figure 2A)) came out at 54%. The “average Igly (mean current amplitude) after ginkgolic acid” value is given as 467 ± 124 pA at α1 GlyR [4] (100 nM ginkgolic acid, glycine 30 μM, n = 8) and 467±124 pA at α1 GlyR [4] (100 nM ginkgolic acid, glycine 30 μM, n = 8, listed as GA). Besides, on α1 GlyR [4] (100 nM ginkgolic acid, 2 min pre-application, glycine 30 μM, n = 8 cells (range in different cells and mean ± SEM)), the “degree of potentiation of Igly” value is recorded as 51 ± 10%. In addition, the “enhancement of Igly after 30 s” value on α1 GlyR [4] (3 μM ginkgolic acid, 30 s, glycine 30 μM) is > 30%. Further, the “effect on amplitudes of currents induced by saturating glycine” value at α1 GlyR [4] (glycine 0.3–1 mM) is “not affected”. The “overall effect on the amplitude of whole-cell currents” value in test [5] (25 μM ginkgolic acid) is listed as “negligible”. Also, in test [5] (25 μM ginkgolic acid, 20–40 sec pre-treatment, one cell), the “change of current induced by 100 μM glycine, one cell with weak potentiation” value is reported as “+4%”. In addition, the “mean current in the presence of ginkgolic acid” value in test [5] (25 μM ginkgolic acid, glycine 100 μM, n = 6, control 338 ± 101) turned out to be 318 ± 96 pA. Moreover, the “mean current after washout of ginkgolic acid” value in test [5] (glycine 100 μM, n = 6, control 338 ± 101) worked out at 326 ± 113 pA; at GABAAR α1/β2/γ2 (GABA 10 μM, n = 16, control 235 ± 65) it was 232 ± 65 pA. For the same compound, the “concentrations at which effects on PP2C were caused” value in test [6] was > 100 µM. Also, the “changes in GABA-evoked currents” value on GABAAR α1/β2/γ2 (25 μM ginkgolic acid, 20–40 s, GABA 1 μM (EC10) or 10 μM (EC50)) is on record as “did not observe any changes”. Moreover, the “mean current after ginkgolic acid application” value at GABAAR α1/β2/γ2 (25 μM ginkgolic acid, GABA 10 μM, n = 16, control 235 ± 65) is 228 ± 63 pA.
With `NCC(=O)O` [glycine, reference compound], in test [5] (read-out: EC50 to glycine in control, n = 11), the EC50 (in general, the concentration at which the effect is half-maximal) came to 142 ± 9.8 µM.
